Assay results: article PMC12264943, “Identification of New Human P2X7 Antagonists Using Ligand- and Structure-Based Virtual Screening” (Journal of Chemical Information and Modeling, 2025)
pIC50: −log10 of the molar value.

Key:
Type in all cases: cell-based
hP2X7 [1] = target: T1, hP2X7 (Homo sapiens, UniProt Q99572); experiment: YO-PRO 1 dye uptake assay, HEK-293 cells stably transfected with hP2X7; conditions: for hP2X7 inhibition in YO-PRO 1 dye uptake, SAR / reduction of hP2X7 activity: analogues at 10 μM; for hP2X7 inhibition in YO-PRO 1 dye uptake, SAR: 1 mM ATP; for reduction of hP2X7 activity: YO-PRO 1, 1 mM ATP, 0.1% DMSO
T1 construct: expressed in transfected cells; host or cells: HEK-293, stably transfected (gift of E. Adinolfi's group, Ferrara University)
T1 sequence (Q99572 1-595): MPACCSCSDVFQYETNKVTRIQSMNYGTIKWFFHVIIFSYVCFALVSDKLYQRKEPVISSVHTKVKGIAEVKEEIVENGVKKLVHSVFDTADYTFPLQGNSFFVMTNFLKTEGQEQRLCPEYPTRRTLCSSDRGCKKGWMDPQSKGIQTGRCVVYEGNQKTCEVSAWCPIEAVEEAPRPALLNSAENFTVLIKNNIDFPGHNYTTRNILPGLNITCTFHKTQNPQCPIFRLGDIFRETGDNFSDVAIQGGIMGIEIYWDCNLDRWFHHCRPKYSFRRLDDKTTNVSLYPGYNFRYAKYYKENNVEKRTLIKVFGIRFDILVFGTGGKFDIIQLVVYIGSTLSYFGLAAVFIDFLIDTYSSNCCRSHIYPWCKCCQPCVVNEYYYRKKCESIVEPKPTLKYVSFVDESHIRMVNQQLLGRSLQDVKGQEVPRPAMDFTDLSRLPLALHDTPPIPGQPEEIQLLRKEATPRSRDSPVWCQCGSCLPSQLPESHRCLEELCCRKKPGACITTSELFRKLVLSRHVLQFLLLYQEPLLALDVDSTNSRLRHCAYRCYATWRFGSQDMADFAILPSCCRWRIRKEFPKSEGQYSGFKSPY
Description: (§1) Astrocytoma 1321 N1 (established by Dr. Gaia Pasqualetto) and HEK-293 (kindly gifted by E. Adinolfi’s group, Ferrara University) both stably transfected with hP2X7, were used to assess the activity of the small molecules selected from the VS. Cells were maintained in DMEM:F12 (PanBiotech) supplemented with 10% FBS, 1% pen-strep, and 150 μg/mL G418 (PanBiotech).
Astrocytoma 1321 N1 cells (2–2.5 × 10^4 cells/well) and HEK-293 cells (4–5 × 10^4 cells/well) expressing hP2X7 were seeded in poly-L-lysine-coated 96-well plates (Sarstedt) 24 h before the experiment. YO-PRO 1 dye was prepared at 5 μM in extracellular solution with low divalent cations (ECS-LD) buffer (147 mM NaCl, 10 mM HEPES, 13 mM glucose, 0.2 mM CaCl2, 2 mM KCl, pH 7.4) and added to cells after washing them with Dulbecco’s phosphate- buffered saline (DPBS) (PanBiotech) and incubated for 20 min at 37 °C. ATP-induced dye uptake, mediated by hP2X7 activation, was monitored using a Clariostar plate reader (excitation: 485 nm; emission: 538 nm) for 30 cycles (75–150 s/cycle), after recording the baseline for five cycles. hP2X7 activation was quantified at cycle 10 by calculating the fluorescence intensity (FI) ratio (Δ(Fcycle 10–F cycle 1)/cycle time).
Compounds 2 and 9, identified as hits, were further evaluated for concentration-dependent inhibition (IC50) of hP2X7 activation in the YO-PRO 1 dye uptake assay using HEK-293 cells stably transfected with hP2X7 (unfortunately, at this point in the study, the stably transfected 1321N1 cells lost P2X7 expression, and we were unable to recover them from frozen aliquots), for which the ATP EC50 was determined to be approximately 1 mM (Supporting material Figure 4C). Seven concentrations (100 to 0.03 μM) were tested, but due to precipitation at 100 μM, the DMSO concentration was increased to 1%.
3 Inhibitory concentration response evaluation of compounds 2 and 9 and their groups highlighted for SAR. […] Compound activity was evaluated along a time of 20 min (75 s per cycle) after ATP addition (700 μM). The fluorescence intensity (FI) values of the first 10 cycles were considered for assessing their ability to inhibit hP2X7. The curves represent three biological replicates (n = 4 per replicate). Data were normalized by setting as 100% the FI recorded by hP2X7 HEK-293 cells incubated in 1% DMSO and stimulated by ATP, and as 0% the FI recorded by the same cells but treated with ECS-LD (assay buffer). (C) Highlighted areas of compound 2 considered for SAR study. R1 refers to the ethyl-benzyl group of the molecules, and R2 and R3 refer to the benzo-(1,3)-dioxol groups. (D) Highlighted areas of compound 9 considered for SAR study. We have defined the area highlighted in yellow and numbered as 1 as the “front” region of the molecule and the one colored in pink and named as 2 as the “back” region of the molecule. L highlights the urea and amide linkers of compounds 2 and 9, respectively.
(§2) 4 Evaluation of compound 2 and 9 analogue activity using YO-PRO 1 and MPR assays. The activity of compound 2 (A and B) and 9 (C and D) analogues was evaluated in YO-PRO 1 (A and C) and MPR (B and D) assays. The compounds were tested at 10 μM and preincubated for either 20 (YO-PRO 1) or 30 min (MPR). The baseline was recorded for 5 cycles before ATP treatment (1 mM). Fluorescence was recorded for 25 (YO-PRO 1) or 5 min (MPR). The data were normalized by setting as 100% for the fluorescence measured from hP2X7 HEK-293 cells incubated with vehicle (0.1% DMSO) and treated with 1 mM ATP and 0% for the fluorescence recorded by the cells not treated with ATP. The data shown correspond to three independent biological replicates (3 technical replicates per experiment; error bars represent the SEM from the mean values of each biological replicate (n = 3)). The statistical analysis was performed with one-way Anova using Dunnett’s function (P**** < 0.0001; P*** < 0.0003; P** < 0.002; P* < 0.02).

hP2X7 [2] = target: T1, hP2X7; experiment: Membrane Potential Red (MPR) dye assay, HEK-293 cells stably transfected with hP2X7; conditions: hP2X7 HEK-293
Description: as §1
Cells were plated as described for the YO-PRO 1 dye uptake assay. MPR dye (Molecular Devices) was prepared following the manufacturer’s protocol and diluted 1:10 in ECS-LD buffer. After washing with DPBS, cells were incubated with the dye for 30 min at 37 °C. Fluorescence changes (excitation: 525 nm; emission: 560 nm) were recorded using a Clariostar plate reader during ATP-induced membrane depolarization. Baseline fluorescence was recorded for 5 cycles, and ATP was added via an automated injector (10 μL). Membrane depolarization was quantified as the ratio of the maximal fluorescence change over baseline intensity (Δ(F max–F0)/F0)).
as §2

HEK-293 WT cells = experiment: Cytotoxicity assay (CellTiter Blue); conditions: 10 μM, 24 h, nontransfected HEK-293 cells
Description: HEK-293 WT cells were seeded at 4 × 10^4 cells/well in 96-well plates precoated with poly-L-lysine. After 24 h, the cells were washed with DPBS and treated with test compounds (10 μM) in 2% FBS-containing medium for 24 h. After this, the medium containing the test compounds was replaced with 20% CellTiter-Blue reagent (Promega) in 2% FBS medium. After a 2-h incubation, fluorescence (excitation: […]; emission: […]) was measured using a Clariostar plate reader. Data were normalized to untreated control cells (100%) and wells without cells (0%).
5 Concentration inhibition curve determination for compound 2g (A) and evaluation of cytotoxicity for compounds 2, 9, and 2g. […] The data on the graph represent the mean from three independent experiments (n = 3 replicates per experiment). (B) The cytotoxicity of the compounds was evaluated on nontransfected HEK-293 cells using a CellTiter Blue assay. The cells were incubated for 24 h with the compounds at 10 μM. The fluorescent signal obtained from vehicle-treated cells (0.1% DMSO) was used to normalize the data to 100%, and the one obtained from wells not containing cells (BLANK) was set as 0%. The data are the combination of three biological replicates (error bars represent the SEM (n = 3)) analyzed by one-way ANOVA using Dunnet’s function (P**** < 0.0001; **< 0.002; * < 0.02; ns, non significant).
The potential cytotoxicity of the hit compounds identified, 2, 9, and 2g, was assessed at 10 μM by CellTiter Blue assay using nontransfected HEK-293 cells (Figure B).

| SMILES | pIC50 (hP2X7 [1]; YO-PRO 1 dye uptake, hP2X7 HEK-293 cells, 100 to 0.03 μM, 1% DMSO, read-out: IC50, inhibition of hP2X7 activation) | hP2X7 inhibition in YO-PRO 1 dye uptake, SAR (hP2X7 [1]) | reduction of hP2X7 activity (hP2X7 [1]) | inhibition at 10 µM (hP2X7 [2]; HEK293, 1 mM ATP) | reduction in cell viability (HEK-293 WT cells) | activity in MPR assay (hP2X7 [2]; 10 μM, 1 mM ATP) |
| --- | --- | --- | --- | --- | --- | --- |
| O=C(Nc1ccc2c(c1)OCO2)NC(Cc1ccc(F)cc1)Cc1ccc(F)cc1 [Compound 2g] | 5.88 | retained potency comparable to that of the hit compound | 80% | 70% | ~10% | – |
| COc1ccc(CC(Cc2ccc3c(c2)OCO3)NC(=O)c2ccc(NC(C)=O)cc2)cc1 (centres unmarked) [Compound 2k] | – | still reduced receptor activation | 80% | – | – | diminished activity relative to the other structural analogues |
